{
  "source": "patent US11897918B2",
  "about": "“Compositions and methods to increase production” (priority 2014, dated 2024)",
  "key": {"MDCK cells": {"test_system": "MDCK cells", "assay": "Cell viability, VI-CELL trypan blue exclusion", "assay_type": "cell-based", "conditions": "monitored up to 60 hrs", "protocol": "Cell viability assays were performed using MDCK cells treated with 1 uM sulphonamide or DMSO control. Cell viability was monitored over time up to 60 hrs using a VI-CELL machine (Beckman Coulter)(cell viability measured based on trypan blue exclusion). The sulphonamide analog used herein is not a marketed drug, therefore toxicity was conducted to identify cell viability over the course of incubation at the highest tested concentration of 10 μM and 60 hours of contact. […] At least 91% viability is detected in cells treated with sulphonamide."}, "H3N2 strain": {"test_system": "H3N2 strain", "assay": "Additional SAR studies, 10 ml viral cultures", "assay_type": "cell-based, influenza H3N2", "conditions": "0.05 uM", "protocol": "Additional SAR studies were carried out to further identify candidate compounds to increase yields. 165 analogs tested at 0.05 uM in 10 ml viral cultures with a H3N2 strain. BYF589 enhanced yield over no-compound (DMSO) control by ˜2 fold. 14 of the 165 screened were as good as or better in enhancing HA yields than BYF589 at the concentration tested."}, "MDCK 33016PF cells": {"test_system": "MDCK 33016PF cells", "conditions": "24 hours; BYF589 1 μM, MEV 100 μM, FTI 0.5 μM, ZA 1 μM, GTI 0.5 μM"}, "IP10 and IFNB1": {"test_system": "IP10 and IFNB1", "assay_type": "cell-based"}, "H3N2 strain IVR-165": {"test_system": "H3N2 strain IVR-165", "assay_type": "cell-based, influenza H3N2", "conditions": "concentrations as low as 0.05 or even 0.01 μM"}, "[1]": {"conditions": "0 and 60 hr, mass spec"}, "[2]": {"test_system": "B/Massachusetts/2/2012 (low-expressing)", "assay": "ambr15 mini-bioreactor and shake flask comparison, B strain", "assay_type": "cell-based, influenza B", "conditions": "CDM and DM134 media, shake flasks and 15 ml bioreactors", "protocol": "The two lead compounds were further tested in the commercially available small-scale bioreactor system, ambr15™ (TAP Biosystems). The ambr15 system mimics the characteristics of classical bioreactors at microscale (10-15 ml), controlled by an automated workstation, which enables the rapid evaluation of multiple bioreactor cultures at microscale.\nTo test both lead compounds were tested side-by-side under controlled conditions, with two infection media formulations (DM134 and CDM) and two flu strains, A/Victoria/361/2011 (IVR-165) (high-expressing) and B/Massachusetts/2/2012 (low-expressing). The infection parameters used in the experiment were as follows: seeding density was 1.0×10^6 cells/ml or 2.5×10^6 cells/mL; pH was 7.1+/−0.02 (pH control by dual control with 0.05N NaOH and CO2 gas); DO was 50% (range 50-80%), controlled by O2 gas; agitation was 1000 rpm (local control); temperature was 34.0° C., locally monitored with bioreactor controller probe; vessel type was Spargeless, extended temperature vessels; and, aeration rate during run was 1 mL/min.\nThe quantification of HA was carried out by ELISA then was subsequently confirmed by HPLC. It was also shown that AFZ077 was able to boost HA yield in the DM134 medium with both low (1×10^6 per mL) and high (2.5×10^6 per mL) infection cell densities in this system. […] Overall, greater enhancement effect seen for low-expressing strains. […]"}, "[3]": {"test_system": "virus-infected host cell culture", "assay_type": "cell-based, influenza", "conditions": "versus control without compound"}, "[4]": {"test_system": "A/Victoria/361/2011 (IVR-165) (high-expressing)", "assay": "ambr15 mini-bioreactor and shake flask comparison, A strain", "assay_type": "cell-based, influenza A H3N2", "conditions": "CDM and DM134 media, shake flasks and 15 ml bioreactors"}, "[5]": {"test_system": "influenza in MDCK 33016PF cells", "assay_type": "cell-based"}, "cellular cholesterol": {"test_system": "cellular cholesterol", "assay": "Total cellular cholesterol (Amplex Red)", "assay_type": "cell-based", "conditions": "normalized to DMSO", "protocol": "Possible effects of BYF589 as well as various enzyme inhibitors of the pathway on the cell viability and total cellular cholesterol levels were examined. Tested samples included DMSO, BYF589 (1 μM), MEV (100 μM), FTI (0.5 μM), ZA (1 μM) and GTI (0.5 μM).\nFree cholesterol is oxidized by cholesterol oxidase to form a cholesterol ketone and H2O2, which then reacts with Amplex Red+HRP to produce the fluorescent product resorufin."}},
  "data": [
    {"smiles": "O=C(O)C[C@H](O)C[C@H](O)/C=C/c1c(C2CC2)nc2ccccc2c1-c1ccc(F)cc1", "note": "[Compound G, (3R, 5S, 6E)-7-[2-cyclopropyl-4-(4-fluorophenyl)-quinolin-3-yl)-3,5-dihydroxyhept-6-enoic acid]", "values": [
      {"measurement": "impact on cell viability", "setting": "MDCK cells", "value": "Neither sulphonamide nor pitavastatin had a negative impact on cell viability"},
      {"measurement": "yield enhancement over no-compound (DMSO) control", "setting": "H3N2 strain", "value": "~2", "unit": "fold"},
      {"measurement": "effect on cell viability", "setting": "MDCK 33016PF cells", "value": "no negative effect on cell viability"},
      {"measurement": "delay time of gene induction (measured at peak)", "setting": "IP10 and IFNB1; both genes, versus absence of compound", "value": "at least two hours"},
      {"measurement": "induction of IFNb and IP10", "setting": "IP10 and IFNB1; virus-infected MDCK cells, preliminary qRT-PCR data", "value": "delayed/suppressed induction"},
      {"measurement": "increase in HA yield", "setting": "H3N2 strain IVR-165", "value": 3, "unit": "fold"},
      {"measurement": "loss of compound in media or media+MDCK cells", "setting": "[1]", "value": "No loss of compounds was observed"},
      {"measurement": "HA yield enhancement, low-expressing B strain", "setting": "[2]", "value": "boosts HA yield"},
      {"measurement": "increase in HA yield at 24 hours, compound added at T=2, 4", "setting": "[3]", "value": "no significant enhancement in HA yield"},
      {"measurement": "increase in HA yield at 24 hours, compound added at T=6", "setting": "[3]", "value": "no significant enhancement in HA yield"},
      {"measurement": "increase in HA yield at 24 hours, compound added at time of infection (T=0)", "setting": "[3]", "value": "approximately 4 fold"},
      {"measurement": "HA yield enhancement, high-expressing A strain", "setting": "[4]", "value": "but not a high-expressing H3N2 strain"},
      {"measurement": "HA yield enhancement in multiple strains and subtypes of influenza", "setting": "[5]", "value": "at least 2 fold"},
      {"measurement": "cellular cholesterol levels, compound alone", "setting": "cellular cholesterol", "value": "lower cholesterol"}
    ]}
  ]
}
